Test results reported in PubChem BioAssay AID624376 (Broad Institute, 2012).
Inconclusive results are not listed.

System: LMP1-induced NF-kappaB luciferase reporter cells, luminescence
Assay: LMP1-driven NF-kB reporter inhibition, dose response, cell-based, luciferase reporter, luminescence, dry powder, set 2 (AID 624376)

Row | SMILES | AC50 [µM]
1 | O=C(C[C@H]1C[C@H]2c3cc(NS(=O)(=O)c4ccc(F)cc4)ccc3O[C@H]2[C@H](CO)O1)NCc1ccc(Oc2ccccc2)cc1 | 10
2 | C[C@H]1CN([C@@H](C)CO)C(=O)c2cc(C#Cc3ccccc3F)cnc2O[C@@H]1CN(C)C(=O)C1CCCCC1 | 27.7
3 | COc1cccc(C#Cc2ccc([C@@H]3[C@H](C#N)N(C(=O)c4ccccn4)[C@H]3CO)cc2)c1 | 29.5
4 | O=C(C[C@H]1CC[C@@H]2[C@H](COC[C@H](O)CN2Cc2ccc(Oc3ccccc3)cc2)O1)N1CCc2ccccc2C1 | 34.5
5 | O=C(Nc1ccc(C(F)(F)F)cc1)Nc1ccc2c(c1)[C@H]1C[C@H](CC(=O)N3CCc4ccccc4C3)O[C@H](CO)[C@H]1O2 | 24.2
6 | O=C(C[C@@H]1C[C@H]2c3cc(NC(=O)c4ccc5c(c4)OCO5)ccc3O[C@H]2[C@H](CO)O1)NC1CCCCC1 | 16.8
7 | N#C[C@H]1N[C@H](CO)[C@H]1c1ccc(C#Cc2ccccc2F)cc1 | < 0.26
8 | COc1ccccc1C#Cc1ccc2c(c1)O[C@H](CN(C)Cc1cccnc1)[C@@H](C)CN([C@@H](C)CO)S2(=O)=O | 13.9
9 | O=C(C[C@@H]1CC[C@@H]2[C@H](COC[C@@H](O)CN2Cc2ccc(Oc3ccccc3)cc2)O1)N1CCc2ccccc2C1 | 16.4
10 | C[C@H](CO)N1C[C@H](C)[C@H](CN(C)C(=O)NC2CCCCC2)Oc2cc(/C=C/c3ccccc3)ccc2S1(=O)=O | 31
